The record followed here is patent publication US10513534B2, “2′-chloro nucleoside analogs for HCV infection” (priority 2012, dated 2019).

In data set [1] the test system is Zluc cells. Description: Cytotoxicity evaluation, CellTiter-Blue Cell Viability Assay. Particulars: Zluc cells, CellTiter-Blue.
For data set [2], the target named is HCV genotype 1b replicon. The data set can be described thus: HCV replicon assay (Zluc luciferase). The data set is classed as cell-based. The protocol:
Huh-7-derived cell line (Zluc) that harbors an HCV genotype 1b replicon and a luciferase reporter gene was grown in Dulbecco's Modified Eagle Medium (DMEM) supplemented with 10% fetal bovine serum, 2 mM GlutaMAX, 1% MEM nonessential amino acids, 100 IU/mL penicillin, 100 μg/mL streptomycin, and 0.5 mg/mL Geneticin® (G418). For dose response testing the cells were seeded in 96-well plates at 7.5×10^3 cells per well in a volume of 50 μL, and incubated at 37° C./5% CO2. Drug solutions were made up freshly in Huh-7 media as 2× stocks. Ten additional 5-fold dilutions were prepared from these stocks in DMEM without G418. At least three hours after Zluc cells were seeded, drug treatment was initiated by adding 50 μL of drug dilutions to the plates in duplicate. Final concentrations of drug ranged from 100 μM to […]. Cells were then incubated at 37° C./5% CO2. Alternatively, compounds were tested at two concentrations (1 μM and 10 μM). […] For this, media was removed from the plates via gentle tapping. Fifty microliters of ONE-glo luciferase assay reagent was added to each well. The plates were shaken gently for 3 min at room temperature and luminescence was measured on a Victor^3 V 1420 multilabel counter (Perkin Elmer) with a 1 second read time using a 700 nm cut-off filter. The EC50 values were calculated from dose response curves from the resulting best-fit equations determined by Microsoft Excel and XLfit 4.1 software. When screening at two fixed concentrations, the results were expressed as % inhibition at 1 μM and 10 μM.
(In general: A replicon is a self-replicating genome or part of one, used to study replication in cells.)

Data set [3] can be described thus: Liver triphosphate pharmacokinetics after single oral dose in CD-1 mice.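 For Ms Liver TP AUC: pmol·h/g liver normalized to a 1 µmol/kg dose.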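 For Ms Liver TP Cmax: pmol/g liver normalized to a 1 µmol/kg dose.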 Type of data set: in vivo. Set-up: key: + ≤ 15; 15 < ++ ≤ 50; 50 < +++ ≤ 100; 100 < ++++; BLQ = below limit of quantitation. Particulars: single oral dose 10 mg/kg in PEG 200. The protocol:
Internal standard solution was added to the homogenate followed by neutralization with 20% ammonium hydroxide solution and addition of 500 μL 1% formic acid. The tissue samples were extracted by weak anion exchange solid phase extraction (SPE). Post extraction, the eluates were evaporated under nitrogen, followed by reconstitution before injection onto the LC-MS/MS system.

Data set [4] can be described thus: Plasma nucleoside pharmacokinetics after single oral dose in CD-1 mice.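 For Ms Plasma nucleoside AUC: pmol·h/mL plasma normalized to a 1 µmol/kg dose.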 The data set is classed as in vivo. Particulars: single oral dose 10 mg/kg in PEG 200. As to the method: Plasma samples were analyzed for nucleoside by LC-MS/MS. The internal standard (IS) was either 2′-MeG-D3 or tiapride. For protein precipitation and extraction, each plasma sample (50 μL) was treated with 500 μL of 0.2% formic acid in acetonitrile and 20 μL of the internal standard working solution. After vortexing and centrifugation, 500 μL of the sample extracts were transferred to a new plate, dried under N2 at ˜28° C. and reconstituted with 75 μL of 0.2% FA in water. The extracts were chromatographed on an Aquasil C18 column using a gradient system of 0.2% formic acid in water and acetonitrile. The analytes were detected and quantified by tandem mass spectrometry in positive ion mode on an MDS Sciex API5000 equipped with a Turbo Ionspray® interface. The calibration range was 0.500 (LLOQ) to 200 ng/mL in mouse plasma.

[5] abbreviates: Zluc cells, 72 hours; read-out: HCV Replicon EC50.

pEC50: −log10 of the molar value. Read-outs that look alike come from different tables or passages of the source.

The term CC50 denotes the concentration giving 50% cytotoxicity. By pEC50 is commonly meant the negative decadic logarithm of the EC50, by convention in mol/L. In the case of `CC(C)OC(=O)C(C)NP(=O)(OCC1OC(n2cnc3c(=O)[nH]c(N)nc32)C(C)(Cl)C1O)Oc1ccccc1` (mixture of isomers) [Compound 21ii Mixture of P-Diastereoisomers], in data set [1], the half-maximal cytotoxic concentration (CC50) is > 50 µM. In addition, the pEC50 in data set [2] (setting [5]) is < 5.00.

`CCOc1nc(N)nc2c1ncn2[C@@H]1O[C@H](COP(=O)(N[C@@H](C)C(=O)OC(C)C)Oc2ccccc2)[C@@H](O)[C@@]1(C)Cl` (single isomer, unassigned) [Compound 17ii Diastereomer 2]: in data set [1], the CC50 is > 50 µM. Besides, in data set [3], the “Ms Liver TP AUC” value is recorded as “BLQ” and the “Ms Liver TP Cmax” value is given as “BLQ”. For the same molecule, the pEC50 in data set [2] (setting [5]) is 5.00 to 6.00.

Turning to `CC(C)OC(=O)[C@H](C)NP(=O)(OC[C@H]1O[C@@H](n2cnc3c(=O)[nH]c(N)nc32)[C@](C)(Cl)[C@@H]1O)Oc1ccccc1` (single isomer, unassigned) [Compound 21ii Diastereomer 2], the CC50 in data set [1] was > 50 µM. In data set [2] (setting [5]), the pEC50 was < 5.00.

For the molecule `CC(C)(CO)C(=O)SCCOP(=O)(NCc1ccccc1)OC[C@H]1O[C@@H](n2ccc(=O)[nH]c2=O)[C@](C)(Cl)[C@@H]1O` (single isomer, unassigned) [Compound 54 Diastereomer 1], in data set [3], the “Ms Liver TP AUC” value is given as “+ (+ ≤ 150)” and the “Ms Liver TP Cmax” value is reported as “++ (15 < ++ ≤ 50)”. Besides, in data set [4], the “Ms Plasma nucleoside AUC” value was “+++ (500 < +++ ≤ 1500)” and the “Ms Plasma nucleoside Cmax” value is recorded as “+++ (50 < +++ ≤ 100)”.

`CC(C)(CO)C(=O)SCCOP(=O)(NCc1ccccc1)OC[C@H]1O[C@@H](n2ccc(=O)[nH]c2=O)[C@](C)(Cl)[C@@H]1O` (single isomer, unassigned) [Compound 54 Single Diastereoisomer]: the CC50 in data set [1] is > 50 µM. For the same molecule, the pEC50 in data set [2] (setting [5]) is 5.00 to 6.00.

Turning to `CCOC(=O)COP(=O)(OC[C@H]1O[C@@H](n2ccc(=O)[nH]c2=O)[C@](C)(Cl)[C@@H]1O)Oc1ccccc1` (single isomer, unassigned) [Compound 72 Diastereomer 2], the pEC50 in data set [2] (read-out: HCV Replicon EC50; Zluc cells, 72 hours) was < 5.00.

Regarding `CC(C)OC(=O)[C@H](C)NP(=O)(OC[C@H]1O[C@@H](n2cc(F)c3c(N)ncnc32)[C@](C)(Cl)[C@@H]1O)Oc1ccccc1` (single isomer, unassigned) [Compound 207ii Diastereomer 2], the CC50 in data set [1] was > 50 µM. Moreover, the pEC50 in data set [2] (setting [5]) was < 5.00.

For the molecule `CC(C)OC(=O)[C@H](C)NP1(=O)OC[C@H]2O[C@@H](n3cnc4c(N)ncnc43)[C@](C)(Cl)[C@@H]2O1` (single isomer, unassigned; diastereoisomer 1) [Compound 77ii Diastereoisomer 1], the CC50 in data set [1] is > 50 µM. Moreover, in data set [2] (setting [5]), the pEC50 was 5.00 to 6.00.

As for `CC(COC(=O)C(C)C)NP1(=O)OCC2OC(n3cnc4c(N)ncnc43)C(C)(Cl)C2O1` (single isomer, unassigned; diastereoisomer 1) [Compound 95 Diastereoisomer 1], in data set [1], the CC50 was > 50 µM. The negative-log EC50 (pEC50) in data set [2] (setting [5]) was 6.00 to 6.60.

As to `CC(C)OC(=O)[C@H](C)NP1(=O)OC[C@H]2O[C@@H](n3cnc4c(N)ncnc43)[C@](C)(Cl)[C@@H]2O1` (single isomer, unassigned; diastereoisomer 2) [Compound 77ii Diastereoisomer 2], the CC50 in data set [1] was > 50 µM. The pEC50 in data set [2] (setting [5]) is 6.00 to 6.60.

As to `CC(COC(=O)C(C)C)NP1(=O)OCC2OC(n3cnc4c(N)ncnc43)C(C)(Cl)C2O1` (single isomer, unassigned; diastereoisomer 2) [Compound 95 Diastereoisomer 2], the CC50 in data set [1] is > 50 µM. In addition, the pEC50 in data set [2] (setting [5]) was 6.00 to 6.60.

`CC(C)OC(=O)[C@H](C)NP1(=O)OC[C@H]2O[C@@H](n3ccc(=O)[nH]c3=O)[C@](C)(Cl)[C@@H]2O1` (single isomer, unassigned; diastereomer 1) [Compound 38ii Diastereomer 1]: in data set [3], the “Ms Liver TP AUC” value is given as “+ (+ ≤ 150)” and the “Ms Liver TP Cmax” value is recorded as “+ (+ ≤ 15)”. Also, in data set [4], the “Ms Plasma nucleoside AUC” value was “+++ (500 < +++ ≤ 1500)” and the “Ms Plasma nucleoside Cmax” value was “+++ (50 < +++ ≤ 100)”.

For `CC(C)OC(=O)[C@H](C)NP(=O)(OCCSC(=O)C(C)(C)C)OC[C@H]1O[C@@H](n2ccc(=O)[nH]c2=O)[C@](C)(Cl)[C@@H]1O` (single isomer, unassigned; diastereomer 1) [Compound 43ii Diastereomer 1], the CC50 in data set [1] was > 50 µM. Also, in data set [2] (setting [5]), the pEC50 was 6.00 to 6.60.

For `CC(C)OC(=O)[C@H](C)NP1(=O)OC[C@H]2O[C@@H](n3cnc4c(N)ncnc43)[C@](C)(Cl)[C@@H]2O1` (single isomer, unassigned; diastereomer 1) [Compound 77ii Diastereomer 1], in data set [3], the “Ms Liver TP AUC” value was “++++ (1500 < ++++)” and the “Ms Liver TP Cmax” value was “++++ (100 < ++++)”. In addition, in data set [4], the “Ms Plasma nucleoside AUC” value is “+ (+ ≤ 150)” and the “Ms Plasma nucleoside Cmax” value is reported as “+ (+ ≤ 15)”.

As to `CC(C)C(=O)OC[C@H](C)NP1(=O)OC[C@H]2O[C@@H](n3cnc4c(N)ncnc43)[C@](C)(Cl)[C@@H]2O1` (single isomer, unassigned; diastereomer 1) [Compound 95i Diastereomer 1], in data set [3], the “Ms Liver TP AUC” value is “+ (+ ≤ 150)” and the “Ms Liver TP Cmax” value is “+ (+ ≤ 15)”. In data set [4], the “Ms Plasma nucleoside AUC” value was “+ (+ ≤ 150)” and the “Ms Plasma nucleoside Cmax” value is “+ (+ ≤ 15)”.

Take `CC(C)OC(=O)[C@@H](C)NP(=O)(OC[C@H]1O[C@@H](n2ccc(=O)[nH]c2=O)[C@](C)(Cl)[C@@H]1O)SC1CCCC1` (single isomer, unassigned; diastereomer 1) [Compound 206i Diastereomer 1]: in data set [3], the “Ms Liver TP AUC” value was “+++ (500 < +++ ≤ 1500)” and the “Ms Liver TP Cmax” value was “++++ (100 < ++++)”. In addition, in data set [4], the “Ms Plasma nucleoside AUC” value is “+++ (500 < +++ ≤ 1500)” and the “Ms Plasma nucleoside Cmax” value is “+++ (50 < +++ ≤ 100)”.

In the case of `CC(C)OC(=O)[C@H](C)NP1(=O)OC[C@H]2O[C@@H](n3ccc(=O)[nH]c3=O)[C@](C)(Cl)[C@@H]2O1` (single isomer, unassigned; diastereomer 2) [Compound 38ii Diastereomer 2], in data set [3], the “Ms Liver TP AUC” value was “+++ (500 < +++ ≤ 1500)” and the “Ms Liver TP Cmax” value is given as “++ (15 < ++ ≤ 50)”. In data set [4], the “Ms Plasma nucleoside AUC” value was “+++ (500 < +++ ≤ 1500)” and the “Ms Plasma nucleoside Cmax” value is “++++ (100 < ++++)”.

In the case of `CC(C)(CO)C(=O)SCCOP(=O)(NCc1ccccc1)OC[C@H]1O[C@@H](n2ccc(=O)[nH]c2=O)[C@](C)(Cl)[C@@H]1O` (single isomer, unassigned; diastereomer 2) [Compound 54 Diastereomer 2], in data set [3], the “Ms Liver TP AUC” value is reported as “+ (+ ≤ 150)” and the “Ms Liver TP Cmax” value is recorded as “+ (+ ≤ 15)”. Further, in data set [4], the “Ms Plasma nucleoside AUC” value is given as “+++ (500 < +++ ≤ 1500)” and the “Ms Plasma nucleoside Cmax” value is “++ (15 < ++ ≤ 50)”.

For the molecule `CC(C)OC(=O)[C@H](C)NP1(=O)OC[C@H]2O[C@@H](n3cnc4c(N)ncnc43)[C@](C)(Cl)[C@@H]2O1` (single isomer, unassigned; diastereomer 2) [Compound 77ii Diastereomer 2], in data set [3], the “Ms Liver TP AUC” value is “++++ (1500 < ++++)” and the “Ms Liver TP Cmax” value is reported as “++++ (100 < ++++)”. Also, in data set [4], the “Ms Plasma nucleoside AUC” value is “+ (+ ≤ 150)” and the “Ms Plasma nucleoside Cmax” value is on record as “+ (+ ≤ 15)”.

For the molecule `CC(C)C(=O)OC[C@H](C)NP1(=O)OC[C@H]2O[C@@H](n3cnc4c(N)ncnc43)[C@](C)(Cl)[C@@H]2O1` (single isomer, unassigned; diastereomer 2) [Compound 95i Diastereomer 2], in data set [3], the “Ms Liver TP AUC” value was “++ (150 < ++ ≤ 500)” and the “Ms Liver TP Cmax” value is “+ (+ ≤ 15)”. Besides, in data set [4], the “Ms Plasma nucleoside AUC” value was “+ (+ ≤ 150)” and the “Ms Plasma nucleoside Cmax” value is reported as “+ (+ ≤ 15)”.

Turning to `CC(C)OC(=O)[C@@H](C)NP(=O)(OC[C@H]1O[C@@H](n2ccc(=O)[nH]c2=O)[C@](C)(Cl)[C@@H]1O)SC1CCCC1` (single isomer, unassigned; diastereomer 2) [Compound 206i Diastereomer 2], in data set [3], the “Ms Liver TP AUC” value is on record as “+++ (500 < +++ ≤ 1500)” and the “Ms Liver TP Cmax” value is “+++ (50 < +++ ≤ 100)”. Also, in data set [4], the “Ms Plasma nucleoside AUC” value is given as “+++ (500 < +++ ≤ 1500)” and the “Ms Plasma nucleoside Cmax” value was “+++ (50 < +++ ≤ 100)”.
